Reference: the kinase profiling compilation of Christmann-Franck et al. (2016)
Where “and” joins values, the source holds several entries; their conditions need not be identical. Equal values may be shown once.

How the values were obtained:
Assay in all cases: KINOMEscan competition binding
Settings in all cases: compound 10.0 µM
CDK2 (human) = CDK2 (human) (UniProt P24941)
CAMK2D (human) = CAMK2D (human) (UniProt Q13557)
FGR (human) = FGR (human) (UniProt P09769)
CDK3 (human) = CDK3 (human) (UniProt Q00526)
CDKL1 (human) = CDKL1 (human) (UniProt Q00532)
NEK2 (human) = NEK2 (human) (UniProt P51955)
MARK2 (human) = MARK2 (human) (UniProt Q7KZI7)
PHKG1 (human) = PHKG1 (human) (UniProt Q16816)
LYN (human) = LYN (human) (UniProt P07948)
[1] = system: FGFR3 (human), P22607 [G697C]
MAP3K5 (human) = MAP3K5 (human) (UniProt Q99683)
[2] = system: MET (human), P08581 [M1250T]
MINK1 (human) = MINK1 (human) (UniProt Q8N4C8)
IRAK3 (human) = IRAK3 (human) (UniProt Q9Y616)
CAMK4 (human) = CAMK4 (human) (UniProt Q16566)
MYLK4 (human) = MYLK4 (human) (UniProt Q86YV6)
NTRK3 (human) = NTRK3 (human) (UniProt Q16288)
FER (human) = FER (human) (UniProt P16591)
MAPKAPK5 (human) = MAPKAPK5 (human) (UniProt Q8IW41)
PRKD3 (human) = PRKD3 (human) (UniProt O94806)
MAP4K2 (human) = MAP4K2 (human) (UniProt Q12851)
STK17B (human) = STK17B (human) (UniProt O94768)
[3] = molecular target: JAK3 JH1 catalytic (human) (UniProt P52333)
DCLK2 (human) = DCLK2 (human) (UniProt Q8N568)
TYRO3 (human) = TYRO3 (human) (UniProt Q06418)
STK32B (human) = STK32B (human) (UniProt Q9NY57)
DDR2 (human) = DDR2 (human) (UniProt Q16832)
CSNK1A1L (human) = CSNK1A1L (human) (UniProt Q8N752)
LATS2 (human) = LATS2 (human) (UniProt Q9NRM7)
MAP4K4 (human) = MAP4K4 (human) (UniProt O95819)
CDKL5 (human) = CDKL5 (human) (UniProt O76039)
DYRK2 (human) = DYRK2 (human) (UniProt Q92630)
BMPR1B (human) = BMPR1B (human) (UniProt O00238)
CAMK1D (human) = CAMK1D (human) (UniProt Q8IU85)
SGK3 (human) = SGK3 (human) (UniProt Q96BR1)
CAMK2G (human) = CAMK2G (human) (UniProt Q13555)
[4] = molecular target: TYK2 JH2 pseudokinase (human) (UniProt P29597)
RIOK3 (human) = RIOK3 (human) (UniProt O14730)
CAMKK2 (human) = CAMKK2 (human) (UniProt Q96RR4)
STK17A (human) = STK17A (human) (UniProt Q9UEE5)
Sequence of STK17A (human) (Q9UEE5 whole entry, looked up): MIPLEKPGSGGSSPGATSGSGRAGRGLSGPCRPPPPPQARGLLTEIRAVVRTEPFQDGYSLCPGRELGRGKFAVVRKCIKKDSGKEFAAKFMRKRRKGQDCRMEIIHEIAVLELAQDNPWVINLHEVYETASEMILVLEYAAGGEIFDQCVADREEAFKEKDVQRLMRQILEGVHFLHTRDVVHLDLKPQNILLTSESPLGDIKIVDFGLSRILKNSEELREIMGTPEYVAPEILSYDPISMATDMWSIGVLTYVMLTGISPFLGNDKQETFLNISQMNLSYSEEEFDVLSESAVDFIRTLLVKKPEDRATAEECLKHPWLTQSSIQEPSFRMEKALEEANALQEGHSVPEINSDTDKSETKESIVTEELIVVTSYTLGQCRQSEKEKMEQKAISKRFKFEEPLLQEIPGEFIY

Sequence of CAMK1D (human) (Q8IU85 whole entry, looked up): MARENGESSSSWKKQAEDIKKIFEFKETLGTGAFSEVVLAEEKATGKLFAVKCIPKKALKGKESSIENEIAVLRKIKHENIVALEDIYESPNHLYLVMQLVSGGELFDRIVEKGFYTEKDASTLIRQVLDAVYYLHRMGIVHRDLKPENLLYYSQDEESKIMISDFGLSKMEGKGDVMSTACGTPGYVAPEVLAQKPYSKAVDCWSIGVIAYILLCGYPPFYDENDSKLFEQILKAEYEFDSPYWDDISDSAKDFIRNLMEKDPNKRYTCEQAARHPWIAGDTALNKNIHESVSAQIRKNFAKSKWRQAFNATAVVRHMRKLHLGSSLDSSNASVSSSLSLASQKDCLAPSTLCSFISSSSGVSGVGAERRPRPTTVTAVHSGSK
Sequence of LYN (human) (P07948 whole entry, looked up): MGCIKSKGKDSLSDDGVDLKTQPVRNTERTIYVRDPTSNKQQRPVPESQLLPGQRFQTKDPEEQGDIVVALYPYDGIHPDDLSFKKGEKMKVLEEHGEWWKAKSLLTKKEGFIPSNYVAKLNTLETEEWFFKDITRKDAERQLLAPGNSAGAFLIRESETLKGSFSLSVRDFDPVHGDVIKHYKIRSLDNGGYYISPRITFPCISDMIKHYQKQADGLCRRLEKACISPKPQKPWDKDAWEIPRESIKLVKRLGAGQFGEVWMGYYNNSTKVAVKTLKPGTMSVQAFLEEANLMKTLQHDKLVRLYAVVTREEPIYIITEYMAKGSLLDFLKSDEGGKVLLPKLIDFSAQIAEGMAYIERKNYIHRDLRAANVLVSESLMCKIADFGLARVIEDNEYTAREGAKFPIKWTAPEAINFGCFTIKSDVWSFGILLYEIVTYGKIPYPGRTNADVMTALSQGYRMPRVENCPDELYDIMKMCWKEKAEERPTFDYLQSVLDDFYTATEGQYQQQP
Sequence of NTRK3 (human) (Q16288 whole entry, looked up): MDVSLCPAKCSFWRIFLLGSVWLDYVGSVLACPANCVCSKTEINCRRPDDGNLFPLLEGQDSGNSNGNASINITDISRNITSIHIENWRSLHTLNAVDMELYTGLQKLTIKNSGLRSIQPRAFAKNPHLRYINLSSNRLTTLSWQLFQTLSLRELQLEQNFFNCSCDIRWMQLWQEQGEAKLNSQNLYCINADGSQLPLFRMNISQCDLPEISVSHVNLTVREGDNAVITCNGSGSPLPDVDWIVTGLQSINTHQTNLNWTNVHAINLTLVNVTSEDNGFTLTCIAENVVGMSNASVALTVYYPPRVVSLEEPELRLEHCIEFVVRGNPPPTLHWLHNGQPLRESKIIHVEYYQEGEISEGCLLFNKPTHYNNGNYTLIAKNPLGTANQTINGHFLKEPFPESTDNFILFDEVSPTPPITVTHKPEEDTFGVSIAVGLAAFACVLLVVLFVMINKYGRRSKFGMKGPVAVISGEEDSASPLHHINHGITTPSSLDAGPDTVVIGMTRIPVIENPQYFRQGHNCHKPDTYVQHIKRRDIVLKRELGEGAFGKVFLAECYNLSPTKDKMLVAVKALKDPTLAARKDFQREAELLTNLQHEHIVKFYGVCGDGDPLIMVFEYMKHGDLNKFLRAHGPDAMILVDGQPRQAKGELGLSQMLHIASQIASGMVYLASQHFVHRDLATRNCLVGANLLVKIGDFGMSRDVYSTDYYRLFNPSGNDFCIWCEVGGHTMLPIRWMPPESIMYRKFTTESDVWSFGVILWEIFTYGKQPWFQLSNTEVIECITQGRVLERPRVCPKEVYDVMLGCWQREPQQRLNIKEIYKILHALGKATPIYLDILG
Sequence of BMPR1B (human) (O00238 whole entry, looked up): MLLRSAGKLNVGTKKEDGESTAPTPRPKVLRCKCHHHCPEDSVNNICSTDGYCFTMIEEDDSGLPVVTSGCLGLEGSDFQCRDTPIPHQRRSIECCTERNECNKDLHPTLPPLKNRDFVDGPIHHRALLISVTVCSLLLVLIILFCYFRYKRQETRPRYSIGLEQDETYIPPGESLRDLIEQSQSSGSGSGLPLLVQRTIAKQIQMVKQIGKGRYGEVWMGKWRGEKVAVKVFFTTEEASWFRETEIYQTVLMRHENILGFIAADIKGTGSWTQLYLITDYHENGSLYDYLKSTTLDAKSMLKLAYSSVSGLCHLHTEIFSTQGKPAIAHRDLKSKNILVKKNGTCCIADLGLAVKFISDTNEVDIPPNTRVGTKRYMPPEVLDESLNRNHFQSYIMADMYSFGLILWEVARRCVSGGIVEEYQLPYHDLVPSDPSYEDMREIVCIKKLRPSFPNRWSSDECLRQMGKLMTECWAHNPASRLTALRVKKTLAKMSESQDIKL
Sequence of CAMK2D (human) (Q13557 whole entry, looked up): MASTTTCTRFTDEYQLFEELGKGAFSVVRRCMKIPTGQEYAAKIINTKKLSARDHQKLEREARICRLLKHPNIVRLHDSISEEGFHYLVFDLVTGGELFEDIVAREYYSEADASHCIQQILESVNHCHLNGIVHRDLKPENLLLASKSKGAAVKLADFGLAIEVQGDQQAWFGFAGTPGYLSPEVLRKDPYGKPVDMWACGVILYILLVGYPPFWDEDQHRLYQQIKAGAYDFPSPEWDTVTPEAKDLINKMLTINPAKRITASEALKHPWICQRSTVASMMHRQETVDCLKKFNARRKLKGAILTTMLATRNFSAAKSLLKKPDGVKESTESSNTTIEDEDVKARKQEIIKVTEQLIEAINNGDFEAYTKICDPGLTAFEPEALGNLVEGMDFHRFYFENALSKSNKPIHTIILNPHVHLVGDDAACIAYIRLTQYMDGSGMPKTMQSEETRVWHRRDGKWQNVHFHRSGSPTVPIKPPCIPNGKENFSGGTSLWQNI
Sequence of LATS2 (human) (Q9NRM7 whole entry, looked up): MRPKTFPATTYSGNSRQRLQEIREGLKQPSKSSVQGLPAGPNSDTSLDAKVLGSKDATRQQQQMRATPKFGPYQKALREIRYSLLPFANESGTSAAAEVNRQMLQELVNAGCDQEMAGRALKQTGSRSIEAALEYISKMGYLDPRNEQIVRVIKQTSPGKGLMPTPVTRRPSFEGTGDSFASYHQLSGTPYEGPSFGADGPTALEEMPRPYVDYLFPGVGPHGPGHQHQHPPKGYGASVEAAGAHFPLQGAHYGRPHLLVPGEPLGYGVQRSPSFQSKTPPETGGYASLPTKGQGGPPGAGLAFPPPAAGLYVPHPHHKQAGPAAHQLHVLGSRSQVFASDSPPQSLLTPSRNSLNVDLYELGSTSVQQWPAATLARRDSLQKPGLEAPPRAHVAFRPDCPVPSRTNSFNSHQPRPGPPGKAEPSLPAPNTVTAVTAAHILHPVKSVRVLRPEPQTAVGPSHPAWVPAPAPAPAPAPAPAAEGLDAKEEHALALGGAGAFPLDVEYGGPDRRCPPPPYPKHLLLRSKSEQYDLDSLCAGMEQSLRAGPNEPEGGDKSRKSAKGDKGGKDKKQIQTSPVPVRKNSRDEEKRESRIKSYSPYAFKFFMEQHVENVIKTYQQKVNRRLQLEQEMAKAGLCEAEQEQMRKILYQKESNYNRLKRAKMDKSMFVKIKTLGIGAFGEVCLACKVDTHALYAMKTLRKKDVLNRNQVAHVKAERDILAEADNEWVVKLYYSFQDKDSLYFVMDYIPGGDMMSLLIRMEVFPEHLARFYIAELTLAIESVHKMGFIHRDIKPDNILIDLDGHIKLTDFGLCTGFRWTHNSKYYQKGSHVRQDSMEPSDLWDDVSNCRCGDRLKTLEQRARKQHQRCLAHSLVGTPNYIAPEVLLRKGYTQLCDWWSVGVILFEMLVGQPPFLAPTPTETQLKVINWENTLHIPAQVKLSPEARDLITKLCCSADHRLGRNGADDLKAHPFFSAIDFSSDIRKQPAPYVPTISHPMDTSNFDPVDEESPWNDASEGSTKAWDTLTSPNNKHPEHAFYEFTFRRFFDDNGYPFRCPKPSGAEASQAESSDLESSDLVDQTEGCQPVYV
Sequence of NEK2 (human) (P51955 whole entry, looked up): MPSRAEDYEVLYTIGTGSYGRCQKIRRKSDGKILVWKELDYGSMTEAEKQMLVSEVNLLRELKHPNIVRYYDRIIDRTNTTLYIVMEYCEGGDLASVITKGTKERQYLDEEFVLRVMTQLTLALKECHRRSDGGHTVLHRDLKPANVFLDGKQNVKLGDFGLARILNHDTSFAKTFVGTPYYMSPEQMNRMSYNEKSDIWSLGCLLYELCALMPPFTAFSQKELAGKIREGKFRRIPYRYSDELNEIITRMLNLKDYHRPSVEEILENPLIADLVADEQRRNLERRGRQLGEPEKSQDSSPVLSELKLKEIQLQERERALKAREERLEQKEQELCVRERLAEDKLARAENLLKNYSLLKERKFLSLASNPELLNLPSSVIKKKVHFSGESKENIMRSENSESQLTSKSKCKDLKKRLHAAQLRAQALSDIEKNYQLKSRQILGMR
Sequence of CDK3 (human) (Q00526 whole entry, looked up): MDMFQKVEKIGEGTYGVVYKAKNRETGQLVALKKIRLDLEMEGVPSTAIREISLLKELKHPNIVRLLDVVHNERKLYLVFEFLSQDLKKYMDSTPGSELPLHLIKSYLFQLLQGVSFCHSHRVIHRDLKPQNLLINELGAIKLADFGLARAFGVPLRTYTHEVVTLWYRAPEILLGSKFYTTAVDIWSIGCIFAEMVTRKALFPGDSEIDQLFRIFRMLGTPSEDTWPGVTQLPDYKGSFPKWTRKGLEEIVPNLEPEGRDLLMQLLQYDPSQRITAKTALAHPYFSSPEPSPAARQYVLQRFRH

Molecule `O=c1[nH]c2ccccc2n1C1CCN(Cc2ccc(-c3nc4cc5[nH]cnc5cc4nc3-c3ccccc3)cc2)CC1` has a kinase still bound, per cent of control (CDK2 (human)) of 92%, a kinase still bound, per cent of control (CAMK2D (human)) of 100% and a kinase still bound, per cent of control (FGR (human)) of 100%. The kinase still bound, per cent of control (CDK3 (human)) was 100%, the kinase still bound, per cent of control (CDKL1 (human)) was 84% and the kinase still bound, per cent of control (NEK2 (human)) was 100%. For the same molecule, the kinase still bound, per cent of control (MARK2 (human)) was 83%, the kinase still bound, per cent of control (PHKG1 (human)) was 100% and the kinase still bound, per cent of control (LYN (human)) was 72%. For the same molecule, the kinase still bound, per cent of control [1] was 89%, the kinase still bound, per cent of control (MAP3K5 (human)) was 83% and the kinase still bound, per cent of control [2] was 28%. For the same molecule, the kinase still bound, per cent of control (MINK1 (human)) was 88%, the kinase still bound, per cent of control (IRAK3 (human)) was 100% and the kinase still bound, per cent of control (CAMK4 (human)) was 100%. For the same molecule, the kinase still bound, per cent of control (MYLK4 (human)) was 64%, the kinase still bound, per cent of control (NTRK3 (human)) was 98% and the kinase still bound, per cent of control (FER (human)) was 83%. It also gave a kinase still bound, per cent of control (MAPKAPK5 (human)) of 59%, a kinase still bound, per cent of control (PRKD3 (human)) of 100% and a kinase still bound, per cent of control (MAP4K2 (human)) of 71%. For the same molecule, the kinase still bound, per cent of control (STK17B (human)) was 89%, the kinase still bound, per cent of control [3] was 95% and the kinase still bound, per cent of control (DCLK2 (human)) was 92%. The kinase still bound, per cent of control (TYRO3 (human)) was 73%, the kinase still bound, per cent of control (STK32B (human)) was 88% and the kinase still bound, per cent of control (DDR2 (human)) was 76%. The kinase still bound, per cent of control (CSNK1A1L (human)) was 80%, the kinase still bound, per cent of control (LATS2 (human)) was 82% and the kinase still bound, per cent of control (MAP4K4 (human)) was 80% and 100%. The kinase still bound, per cent of control (CDKL5 (human)) was 86%, the kinase still bound, per cent of control (DYRK2 (human)) was 88% and the kinase still bound, per cent of control (BMPR1B (human)) was 88%. The kinase still bound, per cent of control (CAMK1D (human)) was 76%, the kinase still bound, per cent of control (SGK3 (human)) was 75% and 100% and the kinase still bound, per cent of control (CAMK2G (human)) was 100%. It also gave a kinase still bound, per cent of control [4] of 66%, a kinase still bound, per cent of control (RIOK3 (human)) of 64% and a kinase still bound, per cent of control (CAMKK2 (human)) of 97%. It also gave a kinase still bound, per cent of control (STK17A (human)) of 100%.
Molecule `C=CC(=O)Nc1ccc(C(=O)c2sc(Nc3ccc(N4CCN(C)CC4)cc3OC)nc2N)cc1` has a kinase still bound, per cent of control (CDK2 (human)) of 75%, a kinase still bound, per cent of control (CAMK2D (human)) of 2.1% and a kinase still bound, per cent of control (FGR (human)) of 91%. For the same molecule, the kinase still bound, per cent of control (CDK3 (human)) was 88%, the kinase still bound, per cent of control (CDKL1 (human)) was 100% and the kinase still bound, per cent of control (NEK2 (human)) was 100%. For the same molecule, the kinase still bound, per cent of control (MARK2 (human)) was 78%, the kinase still bound, per cent of control (PHKG1 (human)) was 7.4% and the kinase still bound, per cent of control (LYN (human)) was 100%. The kinase still bound, per cent of control [1] was 77%, the kinase still bound, per cent of control (MAP3K5 (human)) was 100% and the kinase still bound, per cent of control [2] was 91%. The kinase still bound, per cent of control (MINK1 (human)) was 3.5%, the kinase still bound, per cent of control (IRAK3 (human)) was 96% and the kinase still bound, per cent of control (CAMK4 (human)) was 100%. The kinase still bound, per cent of control (MYLK4 (human)) was 66%, the kinase still bound, per cent of control (NTRK3 (human)) was 93% and the kinase still bound, per cent of control (FER (human)) was 82%. The kinase still bound, per cent of control (MAPKAPK5 (human)) was 14%, the kinase still bound, per cent of control (PRKD3 (human)) was 54% and the kinase still bound, per cent of control (MAP4K2 (human)) was 4.6%. For the same molecule, the kinase still bound, per cent of control (STK17B (human)) was 100%, the kinase still bound, per cent of control [3] was 100% and the kinase still bound, per cent of control (DCLK2 (human)) was 28%. For the same molecule, the kinase still bound, per cent of control (TYRO3 (human)) was 100%, the kinase still bound, per cent of control (STK32B (human)) was 71% and the kinase still bound, per cent of control (DDR2 (human)) was 100%. For the same molecule, the kinase still bound, per cent of control (CSNK1A1L (human)) was 78%, the kinase still bound, per cent of control (LATS2 (human)) was 100% and the kinase still bound, per cent of control (MAP4K4 (human)) was 38%. It also gave a kinase still bound, per cent of control (CDKL5 (human)) of 74%, a kinase still bound, per cent of control (DYRK2 (human)) of 4.2% and a kinase still bound, per cent of control (BMPR1B (human)) of 86%. The kinase still bound, per cent of control (CAMK1D (human)) was 0.55%, the kinase still bound, per cent of control (SGK3 (human)) was 83% and the kinase still bound, per cent of control (CAMK2G (human)) was 1.6%. It also gave a kinase still bound, per cent of control [4] of 66%, a kinase still bound, per cent of control (RIOK3 (human)) of 61% and a kinase still bound, per cent of control (CAMKK2 (human)) of 5%. It also gave a kinase still bound, per cent of control (STK17A (human)) of 100%.
`N#Cc1cc(-c2ccnc(Nc3ccc(-n4cnc(-c5cccnc5)n4)cc3)n2)cc(N2CCOCC2)c1` gave a kinase still bound, per cent of control (CDK2 (human)) of 30%, a kinase still bound, per cent of control (CAMK2D (human)) of 24% and a kinase still bound, per cent of control (FGR (human)) of 54%. The kinase still bound, per cent of control (CDK3 (human)) was 45%, the kinase still bound, per cent of control (CDKL1 (human)) was 34% and the kinase still bound, per cent of control (NEK2 (human)) was 94%. It also gave a kinase still bound, per cent of control (MARK2 (human)) of 73%, a kinase still bound, per cent of control (PHKG1 (human)) of 65% and a kinase still bound, per cent of control (LYN (human)) of 78%. For the same molecule, the kinase still bound, per cent of control [1] was 90%, the kinase still bound, per cent of control (MAP3K5 (human)) was 100% and the kinase still bound, per cent of control [2] was 23%. It also gave a kinase still bound, per cent of control (MINK1 (human)) of 31%, a kinase still bound, per cent of control (IRAK3 (human)) of 12% and a kinase still bound, per cent of control (CAMK4 (human)) of 100%. The kinase still bound, per cent of control (MYLK4 (human)) was 26%, the kinase still bound, per cent of control (NTRK3 (human)) was 100% and the kinase still bound, per cent of control (FER (human)) was 99%. For the same molecule, the kinase still bound, per cent of control (MAPKAPK5 (human)) was 100%, the kinase still bound, per cent of control (PRKD3 (human)) was 100% and the kinase still bound, per cent of control (MAP4K2 (human)) was 10%. It also gave a kinase still bound, per cent of control (STK17B (human)) of 56%, a kinase still bound, per cent of control [3] of 2.2% and a kinase still bound, per cent of control (DCLK2 (human)) of 100%. For the same molecule, the kinase still bound, per cent of control (TYRO3 (human)) was 87%, the kinase still bound, per cent of control (STK32B (human)) was 100% and the kinase still bound, per cent of control (DDR2 (human)) was 100%. It also gave a kinase still bound, per cent of control (CSNK1A1L (human)) of 80%, a kinase still bound, per cent of control (LATS2 (human)) of 62% and a kinase still bound, per cent of control (MAP4K4 (human)) of 24%. It also gave a kinase still bound, per cent of control (CDKL5 (human)) of 7%, a kinase still bound, per cent of control (DYRK2 (human)) of 39% and a kinase still bound, per cent of control (BMPR1B (human)) of 28%. For the same molecule, the kinase still bound, per cent of control (CAMK1D (human)) was 87%, the kinase still bound, per cent of control (SGK3 (human)) was 100% and the kinase still bound, per cent of control (CAMK2G (human)) was 32%. It also gave a kinase still bound, per cent of control [4] of 12%, a kinase still bound, per cent of control (RIOK3 (human)) of 3.2% and a kinase still bound, per cent of control (CAMKK2 (human)) of 52%. It also gave a kinase still bound, per cent of control (STK17A (human)) of 49%.
